From PMC6399515 (Insect Biochemistry and Molecular Biology, 2016) come the findings set out here.

pIC50: −log10 of the molar value.

One data set deals with T1, CYP9J5 (Anopheles gambiae, UniProt Q5TN57).
T1 sequence (Q5TN57 1-545): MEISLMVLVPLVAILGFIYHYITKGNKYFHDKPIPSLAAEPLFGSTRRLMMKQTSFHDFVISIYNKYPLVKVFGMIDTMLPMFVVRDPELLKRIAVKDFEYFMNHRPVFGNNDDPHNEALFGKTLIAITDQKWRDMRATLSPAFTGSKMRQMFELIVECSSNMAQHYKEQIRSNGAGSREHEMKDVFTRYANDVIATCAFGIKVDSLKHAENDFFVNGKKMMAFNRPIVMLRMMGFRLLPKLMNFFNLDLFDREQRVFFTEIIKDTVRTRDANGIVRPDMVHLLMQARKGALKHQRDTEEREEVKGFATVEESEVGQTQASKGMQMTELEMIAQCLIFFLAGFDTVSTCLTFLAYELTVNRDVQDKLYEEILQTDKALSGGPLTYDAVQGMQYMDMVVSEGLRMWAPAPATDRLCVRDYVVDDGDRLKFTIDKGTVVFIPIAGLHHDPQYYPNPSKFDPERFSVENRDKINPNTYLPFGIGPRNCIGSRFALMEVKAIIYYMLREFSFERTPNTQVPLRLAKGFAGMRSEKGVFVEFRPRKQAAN
T1 sequence (Q86QH5 1-679 partner): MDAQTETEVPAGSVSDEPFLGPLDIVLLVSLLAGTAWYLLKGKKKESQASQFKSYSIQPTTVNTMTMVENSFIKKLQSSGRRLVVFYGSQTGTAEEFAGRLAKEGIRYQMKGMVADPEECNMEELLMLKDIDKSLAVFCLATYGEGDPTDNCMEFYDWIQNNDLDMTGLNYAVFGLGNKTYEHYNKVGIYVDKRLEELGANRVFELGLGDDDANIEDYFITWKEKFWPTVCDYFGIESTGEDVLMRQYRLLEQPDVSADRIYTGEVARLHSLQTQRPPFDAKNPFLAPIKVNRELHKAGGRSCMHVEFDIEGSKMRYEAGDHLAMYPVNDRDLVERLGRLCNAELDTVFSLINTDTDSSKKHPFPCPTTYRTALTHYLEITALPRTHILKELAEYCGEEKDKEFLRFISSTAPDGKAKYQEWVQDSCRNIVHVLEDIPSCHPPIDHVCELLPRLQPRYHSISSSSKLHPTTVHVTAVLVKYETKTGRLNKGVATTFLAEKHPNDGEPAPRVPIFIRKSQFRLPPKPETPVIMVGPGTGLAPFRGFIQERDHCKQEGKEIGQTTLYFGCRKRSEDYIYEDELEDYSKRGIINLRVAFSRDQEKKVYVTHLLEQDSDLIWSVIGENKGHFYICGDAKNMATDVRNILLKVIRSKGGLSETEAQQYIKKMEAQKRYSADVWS
T1 sequence (Q86QH4 1-128 partner): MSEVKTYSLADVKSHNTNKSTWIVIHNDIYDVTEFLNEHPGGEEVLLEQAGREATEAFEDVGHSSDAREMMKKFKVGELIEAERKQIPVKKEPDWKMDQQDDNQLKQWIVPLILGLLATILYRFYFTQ
As to the kind of experiment: biochemical.

The target in a further data set is T2, CYP6P2 (Anopheles gambiae, UniProt Q8T629, V81I).
T2 sequence (Q8T629 1-507 V81I): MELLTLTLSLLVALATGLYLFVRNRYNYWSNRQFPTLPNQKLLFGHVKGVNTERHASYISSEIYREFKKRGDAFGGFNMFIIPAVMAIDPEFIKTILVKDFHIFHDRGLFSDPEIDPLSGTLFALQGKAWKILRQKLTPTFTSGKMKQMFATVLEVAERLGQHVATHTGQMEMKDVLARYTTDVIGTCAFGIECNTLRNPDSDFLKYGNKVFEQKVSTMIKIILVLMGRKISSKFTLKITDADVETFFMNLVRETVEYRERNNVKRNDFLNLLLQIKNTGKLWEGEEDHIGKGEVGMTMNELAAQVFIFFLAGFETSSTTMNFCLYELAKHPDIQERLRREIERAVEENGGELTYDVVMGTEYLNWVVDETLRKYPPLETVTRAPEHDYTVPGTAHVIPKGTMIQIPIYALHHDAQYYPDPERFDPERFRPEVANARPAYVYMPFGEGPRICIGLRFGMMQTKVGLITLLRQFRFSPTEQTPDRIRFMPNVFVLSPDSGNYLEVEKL
T2 sequence (Q7QFI3 1-587 partner): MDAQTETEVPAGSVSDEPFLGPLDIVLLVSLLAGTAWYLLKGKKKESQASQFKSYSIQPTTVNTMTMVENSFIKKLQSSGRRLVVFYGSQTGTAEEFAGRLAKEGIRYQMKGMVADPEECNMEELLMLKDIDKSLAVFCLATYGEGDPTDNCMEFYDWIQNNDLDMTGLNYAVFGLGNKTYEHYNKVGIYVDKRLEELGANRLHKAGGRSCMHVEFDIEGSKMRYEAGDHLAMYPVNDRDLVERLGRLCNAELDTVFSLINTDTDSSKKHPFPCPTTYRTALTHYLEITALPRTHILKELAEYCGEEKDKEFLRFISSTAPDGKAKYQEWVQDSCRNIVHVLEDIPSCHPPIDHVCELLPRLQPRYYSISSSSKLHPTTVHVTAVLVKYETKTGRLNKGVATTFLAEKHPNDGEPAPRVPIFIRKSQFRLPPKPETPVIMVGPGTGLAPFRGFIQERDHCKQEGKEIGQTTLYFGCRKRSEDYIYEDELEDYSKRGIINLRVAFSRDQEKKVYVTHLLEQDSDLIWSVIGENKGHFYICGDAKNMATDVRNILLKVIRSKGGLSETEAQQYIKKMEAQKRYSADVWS
T2 sequence (Q86QH4 1-128 partner): T1 sequence (Q86QH4 1-128 partner)
The data set can be described thus: biochemical. The note with it: IC50 of DEF metabolism.

For the next data set, the target named is T3, CYP6P3 (Anopheles gambiae, UniProt Q8T632).
T3 sequence (Q8T632 1-509): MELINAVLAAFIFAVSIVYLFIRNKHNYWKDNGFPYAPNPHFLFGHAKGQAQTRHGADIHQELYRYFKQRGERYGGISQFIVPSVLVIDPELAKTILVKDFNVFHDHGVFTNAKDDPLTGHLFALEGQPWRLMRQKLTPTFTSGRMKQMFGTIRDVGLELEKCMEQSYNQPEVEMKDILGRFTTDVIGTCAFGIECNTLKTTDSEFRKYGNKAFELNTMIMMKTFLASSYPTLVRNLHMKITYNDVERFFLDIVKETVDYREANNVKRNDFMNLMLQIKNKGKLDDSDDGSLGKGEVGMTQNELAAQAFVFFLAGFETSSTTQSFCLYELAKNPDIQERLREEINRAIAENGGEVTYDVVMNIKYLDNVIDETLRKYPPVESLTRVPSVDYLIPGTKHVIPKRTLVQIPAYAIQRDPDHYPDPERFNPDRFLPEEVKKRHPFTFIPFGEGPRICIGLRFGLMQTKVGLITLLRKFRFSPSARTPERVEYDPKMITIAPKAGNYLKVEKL
T3 sequence (Q86QH5 1-679 partner): T1 sequence (Q86QH5 1-679 partner)
T3 sequence (Q86QH4 1-128 partner): T1 sequence (Q86QH4 1-128 partner)
The data set can be described thus: biochemical.

In a further data set the target is T4, CYP6Z2 (Anopheles gambiae, UniProt A8I285).
T4 sequence (A8I285 1-492): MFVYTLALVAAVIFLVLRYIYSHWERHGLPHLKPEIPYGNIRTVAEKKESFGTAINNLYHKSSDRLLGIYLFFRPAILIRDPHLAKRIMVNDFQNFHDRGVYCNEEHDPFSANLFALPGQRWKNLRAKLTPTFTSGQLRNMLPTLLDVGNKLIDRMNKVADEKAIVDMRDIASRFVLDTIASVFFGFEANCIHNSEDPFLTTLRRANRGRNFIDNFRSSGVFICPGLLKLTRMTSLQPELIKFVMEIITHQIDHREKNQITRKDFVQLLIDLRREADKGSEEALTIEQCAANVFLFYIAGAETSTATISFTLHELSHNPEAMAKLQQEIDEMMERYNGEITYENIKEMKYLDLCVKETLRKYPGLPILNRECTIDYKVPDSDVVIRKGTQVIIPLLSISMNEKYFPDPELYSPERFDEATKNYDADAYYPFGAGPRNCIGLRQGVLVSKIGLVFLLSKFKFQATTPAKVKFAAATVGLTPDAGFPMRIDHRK
T4 sequence (Q86QH5 1-679 partner): T1 sequence (Q86QH5 1-679 partner)
T4 sequence (Q86QH4 1-128 partner): T1 sequence (Q86QH4 1-128 partner)
The data set can be described thus: biochemical.

In a further data set the target is CYP6M2 (Anopheles gambiae, UniProt Q7Q449). The data set can be described thus: biochemical.
Data set [1] concerns all mosquito P450s of the panel apart from CYP6Z2 (CYP6M2, CYP6P2, CYP6P3, CYP6P4, CYP9J5). The data set can be described thus: in vitro. The settings on record: Anopheles gambiae.

CYP6M2, sequence (Q7Q449 1-499, one chain of several): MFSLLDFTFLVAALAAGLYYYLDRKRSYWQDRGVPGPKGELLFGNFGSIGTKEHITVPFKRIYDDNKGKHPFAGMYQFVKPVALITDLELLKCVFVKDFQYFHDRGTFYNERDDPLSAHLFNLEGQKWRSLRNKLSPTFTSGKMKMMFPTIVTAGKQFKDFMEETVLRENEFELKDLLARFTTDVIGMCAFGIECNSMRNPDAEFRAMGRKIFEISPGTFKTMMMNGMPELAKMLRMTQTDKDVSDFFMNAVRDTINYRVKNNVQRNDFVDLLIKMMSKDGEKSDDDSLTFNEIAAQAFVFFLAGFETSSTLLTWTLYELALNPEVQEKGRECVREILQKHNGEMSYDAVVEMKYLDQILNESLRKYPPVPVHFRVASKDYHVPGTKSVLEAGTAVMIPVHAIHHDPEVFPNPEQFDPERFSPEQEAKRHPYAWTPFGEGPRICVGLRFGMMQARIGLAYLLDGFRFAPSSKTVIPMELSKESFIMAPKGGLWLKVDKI

For the compound `CC1(C)[C@H](C(=O)O[C@H](C#N)c2cccc(Oc3ccccc3)c2)[C@@H]1C=C(Br)Br` [Deltamethrin, (S)-α-cyano-3-phenoxybenzyl (1R,3R)-cis-2,2-dimethyl-3-(2,2-dibromovinyl)-cyclopropanecarboxylate], the pIC50 is 5.22 against CYP9J5; 5.30 at CYP6P2; 5.50 at CYP6P3; 4.85 against CYP6Z2 (IC50 of DEF metabolism); under 5.00 against CYP6Z2 (category of inhibition of DEF metabolism); 5.37 at CYP6M2. The pIC50 is 5.00 to 6.00 in data set [1] (pH 7.4, IC50 of DEF activity) and 5.00 to 6.00 in data set [1] (pH 7.4, category of inhibition of DEF activity).
